Values joined by “and” are separate entries in the source; they are usually repeats but may differ in a detail not shown here. Equal values may be shown once.
Legend:
O=CC(=O)c1ccccc1 = assay: Kinetic constants from purified enzyme by Lineweaver-Burk plots; format: biochemical, Gluconobacter oxydans; conditions: other: 40 mM KPB at optimal pH and 30 °C, substrate 0.025 to 10 mM
Description: (§1) Determination of pH and temperature optima and enzyme kinetics: The optimum pH for enzyme activities was determined by a modified method of Salusjärvi, T. et al., Appl. Microbiol. Biotechnol. 65:306-314 (2004) using the following buffer system (50 mM final concentration each): sodium acetate pH 4.5 - 6.5, potassium phosphate pH 6.5 - 8.0, Tris-HCl pH 8.0 - 10. Temperature optima for the biocatalysts were determined under standard reaction conditions at temperatures ranging from 20 - 80 °C. The Michaelis constant (Km) for the proteins was determined from purified enzyme by Lineweaver-Burk plots. Assays were performed at optimum pH for each enzyme and at 30 °C using the best substrate and a targeted substrate. The Km for each substrate was calculated using concentrations of 0.0025 to 10 mM, and the Km NAD(P)H and NAD(P) was calculated using concentrations of 0.01 to 0.5 mM
(§2) 2.9 Kinetic parameters of the keto carbonyl reductases: Kinetic constants were determined from purified enzyme by Lineweaver-Burk plots. The Km and Vmax values for the substrates were calculated using concentrations of 0.025 to 10 mM. The optimal pH values and temperatures for enzyme activities are also shown in Tab. 8. Table 8: Summary of kinetic parameters

CCC(=O)C(C)=O = assay: as above; format: biochemical, Gluconobacter oxydans; conditions: other: 40 mM KPB at optimal pH and 30 °C, substrate 0.025 to 10 mM
Description: as §1, §2

Gox1615 [1] = target: T1, Gox1615 (Gluconobacter oxydans, UniProt Q5FQJ0); assay: NADPH-dependent α-ketocarbonyl reductase activity assay (rate of decrease of NADPH at 340 nm); format: biochemical; conditions: for Gox1615 U/mg*: Table 3, 10 mM substrate, 40 mM K-phosphate buffer pH 7.0, 0.05 mM NAD(P)H, 30 °C, U/mg = µmol x min^-1 x mg protein^-1; for Specific Activity (U/mg)*: Table 5, cofactor NADPH, U/mg = µmol/mg·min
T1 sequence (Q5FQJ0 1-332): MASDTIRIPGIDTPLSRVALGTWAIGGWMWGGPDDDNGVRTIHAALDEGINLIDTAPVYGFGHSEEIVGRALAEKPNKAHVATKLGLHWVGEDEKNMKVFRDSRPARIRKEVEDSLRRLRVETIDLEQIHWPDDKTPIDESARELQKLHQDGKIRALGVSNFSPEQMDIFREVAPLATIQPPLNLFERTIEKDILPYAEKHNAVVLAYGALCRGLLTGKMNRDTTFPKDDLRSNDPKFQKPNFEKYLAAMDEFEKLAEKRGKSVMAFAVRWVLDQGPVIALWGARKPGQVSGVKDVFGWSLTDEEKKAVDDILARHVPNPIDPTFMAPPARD
Description: (§3) Measurement of enzyme activity: NADPH-dependent α-ketocarbonyl reductases were assayed by a routine method used for NAD(P)-linked enzymes by recording the rate of decrease of NADPH at 340 nm (ε = 6.22 mM^-1 x cm^-1)) with substrates at 30 °C. The reaction mixture (1 ml) for reduction of α-ketocarbonyl substrates contained 10 mM substrate, 40 mM potassium phosphate buffer pH 7.0, 0.025 mM NAD(P)H and the enzyme. Reactions were induced by addition of enzyme or substrate. One unit was defined as the amount of enzyme activity catalyzing the conversion of 1 µmol of pyridine nucleotide per min at 30 °C. NMR Analysis of Biotransformation Products: Biotransformations were extracted with equal volumes of CDCl3. and ^13C NMR spectra were recorded on a Bruker Avance 300 DPX spectrometer operating at 300 MHz for ^1H NMR and at 75 MHz for ^13C NMR, respectively. Spectra were processed using Bruker TonSpin 1.3 for Windows software and calibrated to the residual solvent peak of CDCl3 (δH = 7.26 / δC = 77.0).
NADPH-dependent α-ketocarbonyl reductases were assayed by a routine method used for NAD(P)-linked enzymes by recording the rate of decrease of NADPH at 340 nm (ε = 6.22 mM^-1.cm^-1) with substrates at 30 °C. The reaction mixture (1 ml) for reduction of α-ketocarbonyl substrates contained 10 mM substrate, 40 mM potassium phosphate buffer pH 7.0, 0.025 mM NADPH, and the enzyme. Reactions were induced by addition of enzyme or substrate. One unit of activity was defined as the amount of enzyme activity catalyzing the conversion of 1 µmol of pyridine nucleotide per min at 30 °C.
Purified NAD(P)-dependent oxidoreductases were assayed at 30 °C by a routine method used for NAD(P)-linked enzymes by recording the rate of decrease of NAD(P)H at 340 nm (ε = 6.22 mM^-1˙cm^-1) with substrates capable of reduction reactions. The standard reaction mixture (1 ml) for the reduction reactions of substrates contained 10 mM substrate, 40 mM potassium phosphate buffer (K-phosphate buffer) pH 7.0, 0.05 mM NAD(P)H, and the enzyme unless otherwise noted. Reactions were induced by addition of enzyme or substrate. One unit of activity was defined as the amount of enzyme activity catalyzing the conversion of 1 µmol of pyridine nucleotide per min at 30 °C. Measurement of the protein content was performed by the method of Bradford (Bradford M.M., Anal. Biochem. 72:248-254 (1976)). Table 3: Enzymatic activities with α-diketones, α-ketoaldehydes and α-ketoesters

Gox0644 [2] = target: T2, Gox0644 (Gluconobacter oxydans, UniProt Q5FT75); assay: as above; format: biochemical; conditions: for Gox0644 U/mg*: Table 3, 10 mM substrate, 40 mM K-phosphate buffer pH 7.0, 0.05 mM NAD(P)H, 30 °C, U/mg = µmol x min^-1 x mg protein^-1
Description: Reactions were induced by addition of enzyme or substrate. One unit was defined as the amount of enzyme activity catalyzing the conversion of 1 µmol of pyridine nucleotide per min at 30 °C. NMR Analysis of Biotransformation Products: Biotransformations were extracted with equal volumes of CDCl3. and ^13C NMR spectra were recorded on a Bruker Avance 300 DPX spectrometer operating at 300 MHz for ^1H NMR and at 75 MHz for ^13C NMR, respectively.
Reactions were induced by addition of enzyme or substrate. One unit of activity was defined as the amount of enzyme activity catalyzing the conversion of 1 µmol of pyridine nucleotide per min at 30 °C.
The standard reaction mixture (1 ml) for the reduction reactions of substrates contained 10 mM substrate, 40 mM potassium phosphate buffer (K-phosphate buffer) pH 7.0, 0.05 mM NAD(P)H, and the enzyme unless otherwise noted. Reactions were induced by addition of enzyme or substrate. One unit of activity was defined as the amount of enzyme activity catalyzing the conversion of 1 µmol of pyridine nucleotide per min at 30 °C. […] Table 3: Enzymatic activities with α-diketones, α-ketoaldehydes and α-ketoesters

Gox0644 [3] = target: T2, Gox0644; assay: Kinetic constants from purified enzyme by Lineweaver-Burk plots; format: biochemical
Description: as §1, §2

Gox0644 [4] = target: T2, Gox0644; assay: Coupled-enzyme biotransformation with cofactor regeneration, product determined by NMR (regio- and stereoselectivity); format: biochemical
Description: as §3
Determination of the absolute configuration of the biotransformation product 2-hydroxy-pentan-3-one using chiral NMR shift solvents: Chiral NMR shift reagent (R,R)- and (S,S)-bis-α-methylbenzylamine-para-methyl (BMBA-p-Me) was prepared with small modifications according to the method reported by Kobayashi, Y et al., Tetrahedron Lett. 44: 7489-7491 (2003). In brief, the method of Marshall, J.A. and Mikowski, A. M., Org. Lett. 8:4375-4378 (2006) was used to synthesize 1,3-dibromo-2-methylpropane from 1,3-dihydroxy-2-methylpropane. Diisopropylethylamine (25.5 g), triphenylphosphine (20.1 g) and CBr4 (25.5 g) were sequentially added to a stirring solution of […] in 100 ml CH2Cl2 at 0 °C. The reaction was stirred for 3-4 h at 0 °C and concentrated under reduced pressure to give a green-brown oil. The oil was dissolved in diethyl ether and water (100 ml each) and the aqueous layer was extracted three times with diethyl ether. The organic extracts were combined and washed with water and brine, and dried over MgSO4. The reaction was concentrated under reduced pressure and applied to flash chromatography on silica 60 (230-400 mesh, 100% cyclohexane). Fractions containing the 1,3-dibromo-2-methylpropane product were combined (as judged by Si-TLC [100% cyclohexene]) and concentrated under reduced pressure resulting in a brown-yellow oil. The dibromopropane oil was used for the synthesis of (R,R)- and (S,S)-BMBA-p-Me as described by (Kobayashi, Y. et al., Org. Lett. 4(3):411-414 (2002). The crude oil was distilled by Kugelrohr at 240 °C to give crude BMPA-p-Me (yellow oil). BMBA-p-Me was purified by HPLC using a C18 column (Waters Xterra, 250 x 4.6 mm) at a flow rate of 0.8 ml min^-1 and a 40 min linear gradient of 50-100 % MeOH at ambient temperature. Fractions were concentrated under reduced pressure and BMBA-p-Me was identified by ^1H-NMR (colorless hygroscopic oil).
Approximately 7.5 mg of the extracted product 2-hydroxy-pentan-3-one was added to 15 mg (R,R)- or (S,S)-BMBA-p-Me (dissolved in 200-300 µl CDCl3) and analyzed by ^13C NMR with the readout adjusted to 0.001 ppm/point (sw = 239 ppm, td = 512k) (Fiorentino, A. et al., Tetrahedron., 62:8952-8958 (2006)). The absolute configuration was determined based on the sign of ΔδRR-SS (δ(R,R)-BMBA-p-Me - δ(S,S)-BMBA-p-Me) for the α-carbons adjacent to the hydroxymethine unit as formulated in the following model shown in Scheme 3 (valid for saturated secondary alcohols of acyclic and cyclic compounds): [drawing 7]
Cofactor regeneration: A prerequisite for the production of α-hydroxycarbonyl compounds is the regeneration of the expensive coenzymes and the stability of the protein catalysts. By coupling two coenzyme-dependent enzyme reactions, NADPH can be continuously regenerated. […]

Gox1615 [5] = target: T1, Gox1615; assay: Kinetic constants from purified enzyme by Lineweaver-Burk plots; format: biochemical
Description: as §1, §2

[6] = substrate: CC(=O)C=O; assay: as above; format: biochemical, Gluconobacter oxydans; conditions: other: 40 mM KPB at optimal pH and 30 °C, substrate 0.025 to 10 mM
Description: as §1, §2

[7] = substrate: CCCC(=O)C(C)=O; assay: as above; format: biochemical, Gluconobacter oxydans; conditions: other: 40 mM KPB at optimal pH and 30 °C, substrate 0.025 to 10 mM
Description: as §1, §2

[8] = substrate: O=CC(=O)c1ccccc1; assay: as above; format: biochemical, Gluconobacter oxydans; conditions: other: 40 mM KPB at optimal pH and 30 °C, substrate 0.025 to 10 mM; remark: listed apart in the source
Description: as §1, §2

[9] = substrate: CCC(=O)C(C)=O; assay: as above; format: biochemical, Gluconobacter oxydans; conditions: other: 40 mM KPB at optimal pH and 30 °C, substrate 0.025 to 10 mM; remark: listed apart in the source
Description: as §1, §2

What does the source list for Gox0644 (Gluconobacter oxydans 621H)?
Km (O=CC(=O)c1ccccc1): 4.8 mM; Vmax (O=CC(=O)c1ccccc1): 74.7 µmol/min x mg; Km (CCC(=O)C(C)=O): 5.7 mM; Vmax (CCC(=O)C(C)=O): 69.6 µmol/min x mg

Which “Gox1615 U/mg*” value (Gox1615 [1]) does the source give for `O=CC(=O)c1ccccc1` [phenylglyoxal] here?
Its value is 19.1 U/mg.

And the “Specific Activity (U/mg)*” value (Gox1615 [1])?
Its value is 19.1 U/mg.

What about the “Gox0644 U/mg*” value (Gox0644 [2]) of the same molecule?
The value was 74.7 U/mg.

What about the Vmax (Gox0644 [3]) of the same molecule?
Its Vmax is 75 U/mg protein.

What does the source list for `CC(=O)C(=O)c1ccccc1` [1-phenyl-1,2-propanedione]?
Gox1615 U/mg* (Gox1615 [1]): 5.4 U/mg; Specific Activity (U/mg)* (Gox1615 [1]): 5.4 U/mg; Gox0644 U/mg* (Gox0644 [2]): 75.4 U/mg; activity (Gox0644 [2]; substrates showing the highest activities): 75 U/mg protein; Product (stereoselective reduction) (Gox0644 [4]; NMR with chiral solvent BMBA-p-Me): 1-phenyl-2R-hydroxy-propanone; Product (regioselective reduction) (Gox0644 [4]; determined by NMR analysis): 1-phenyl-2-hydroxy-propanone and 1-phenyl-2-hydroxy-1-propanone

`CC(=O)C=O` [methylglyoxal] was tested. Which “Gox1615 U/mg*” value (Gox1615 [1]) did it give?
Its value is 23.0 U/mg.

What about the “Specific Activity (U/mg)*” value (Gox1615 [1]) of the same molecule?
Its value is 23.0 U/mg.

What about the “Gox0644 U/mg*” value (Gox0644 [2]) of the same molecule?
The value was 3.4 U/mg.

And the Vmax (Gox1615 [5])?
The Vmax was 23 U/mg protein.

B1: Gox1615 (Gluconobacter oxydans 621H) (protein)
chain: T1 sequence (Q5FQJ0 1-332)
What does the source list for B1?
Km [6]: 4.3 mM; Vmax [6]: 23.0 µmol/min x mg; Km [7]: 4.0 mM; Vmax [7]: 7.0 U/mg protein; Km [8]: 4.3 mM; Vmax [8]: 23 U/mg protein; Km [9]: 4.0 mM; Vmax [9]: 7.0 µmol/min x mg

Source: patent EP2316926B1, “Enantioselective production of alpha-hydroxy carbonyl compounds” (priority 2009, dated 2011)
